Measurements from article PMC5954419 (Biochemistry, 2017).

Target: T1, MGST1 (unactivated) (Rattus norvegicus, UniProt P08011)
T1 sequence (P08011 2-155): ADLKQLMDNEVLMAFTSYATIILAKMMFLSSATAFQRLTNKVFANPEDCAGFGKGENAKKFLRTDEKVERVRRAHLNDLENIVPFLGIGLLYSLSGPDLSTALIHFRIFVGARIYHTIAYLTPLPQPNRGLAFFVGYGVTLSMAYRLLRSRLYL
Test: steady-state spectrophotometric product formation
Type: biochemical
Conditions: 5 mM GSH, 5 °C, pH 6.5, 0.1 M potassium phosphate, 0.1% Triton X-100; unactivated enzyme

`O=[N+]([O-])c1ccc(Cl)c([N+](=O)[O-])c1` [CDNB, 1-Chloro-2,4-dinitrobenzene] gave a Km of 11 ± 2 µM.
